Measured values from PMC6435570, “Zafirlukast Is a Dual Modulator of Human Soluble Epoxide Hydrolase and Peroxisome Proliferator-Activated Receptor γ” (Frontiers in Pharmacology, 2019).
Entries after “also recorded” stand apart in the source; their conditions may differ.

Tests used:
[1] = test system: PPARγ2 phosphorylation at serine 273; assay: TNFα triggered PPARγ Ser273 phosphorylation in 3T3-L1 adipocytes (Western Blot); assay type: cell-based, murine; details: zafirlukast 1 or 10 μM or rosiglitazone 2 μM for 45 min, then TNFα 50 ng/mL 30 min
Method: Total 3T3-L1 or HEP-G2 cell lysates were prepared in lysis buffer (20 mM Tris-HCl, pH 7.4, 150 mM NaCl, 2 mM EDTA, 1% Triton X-100, 0.5% NP-40) supplemented with protease and phosphatase inhibitors (PhosSTOP^TM + cOmplete^TM Mini, Roche Diagnostics GmbH, Mannheim, Germany). Protein concentrations were quantified using the Pierce^TM BCA Protein Assay Kit (Thermo Scientific, Waltham, MA, United States). Total protein (30 μg/lane) was separated by SDS-polyacrylamide gel electrophoresis and transferred to nitrocellulose membranes (GE Healthcare Life Sciences, Little Chalfont, United Kingdom). Membranes were blocked with Odyssey blocking reagent (LI-COR Biosciences, Bad Homburg, Germany) for 1 h at room temperature. […] Afterwards, membranes were washed and incubated with fluorescence conjugated secondary antibodies (IRDye, LI-COR Biosciences, Bad Homburg, Germany). […] The density of the immune reactive bands was analyzed using the Image Studio 5.2 software (LI-COR Biosciences, Bad Homburg, Germany).
We induced this post-translational modification by short-term treatment of the differentiated cells with the cytokine TNFα, generating a pro-inflammatory milieu. […] For this, we used an assay system in which the recruitment of the fluorescence-tagged PPARγ coactivator CBP to the PPARγ-LBD was assessed by time-resolved FRET technique in presence and absence of rosiglitazone.

CysLT1R = details: Table 2 comparison column; no method, no reference given; cited from earlier work

COc1cc(C(=O)NS(=O)(=O)c2ccccc2C)ccc1Cc1cn(C)c2ccc(NC(=O)OC3CCCC3)cc12 [Zafirlukast, zafirlukast]
TNFα induced phosphorylation of PPARγ2 at serine 273 [1]: inhibited this phosphorylation; also recorded: completely revert this phosphorylation | IC50 (CysLT1R): 5 nM
